Data published in patent US20030105119A1, “Barbiturates as integrin antagonists and their use for treating inflammatory diseases” (priority 2001, published 2003).

What follows are molecules tested against T1, α4β7 integrin binding to human MAdCAM-1-Ig (Homo sapiens, UniProt P13612+P26010) (assay: Adhesion inhibition assay (BCEF-labeled RPMI 8866 cells on huMAdCAM-1-Ig coated plates)).
T1 construct: endogenous in cells; host or cells: RPMI 8866 cells
T1 sequence (P13612 34-1032): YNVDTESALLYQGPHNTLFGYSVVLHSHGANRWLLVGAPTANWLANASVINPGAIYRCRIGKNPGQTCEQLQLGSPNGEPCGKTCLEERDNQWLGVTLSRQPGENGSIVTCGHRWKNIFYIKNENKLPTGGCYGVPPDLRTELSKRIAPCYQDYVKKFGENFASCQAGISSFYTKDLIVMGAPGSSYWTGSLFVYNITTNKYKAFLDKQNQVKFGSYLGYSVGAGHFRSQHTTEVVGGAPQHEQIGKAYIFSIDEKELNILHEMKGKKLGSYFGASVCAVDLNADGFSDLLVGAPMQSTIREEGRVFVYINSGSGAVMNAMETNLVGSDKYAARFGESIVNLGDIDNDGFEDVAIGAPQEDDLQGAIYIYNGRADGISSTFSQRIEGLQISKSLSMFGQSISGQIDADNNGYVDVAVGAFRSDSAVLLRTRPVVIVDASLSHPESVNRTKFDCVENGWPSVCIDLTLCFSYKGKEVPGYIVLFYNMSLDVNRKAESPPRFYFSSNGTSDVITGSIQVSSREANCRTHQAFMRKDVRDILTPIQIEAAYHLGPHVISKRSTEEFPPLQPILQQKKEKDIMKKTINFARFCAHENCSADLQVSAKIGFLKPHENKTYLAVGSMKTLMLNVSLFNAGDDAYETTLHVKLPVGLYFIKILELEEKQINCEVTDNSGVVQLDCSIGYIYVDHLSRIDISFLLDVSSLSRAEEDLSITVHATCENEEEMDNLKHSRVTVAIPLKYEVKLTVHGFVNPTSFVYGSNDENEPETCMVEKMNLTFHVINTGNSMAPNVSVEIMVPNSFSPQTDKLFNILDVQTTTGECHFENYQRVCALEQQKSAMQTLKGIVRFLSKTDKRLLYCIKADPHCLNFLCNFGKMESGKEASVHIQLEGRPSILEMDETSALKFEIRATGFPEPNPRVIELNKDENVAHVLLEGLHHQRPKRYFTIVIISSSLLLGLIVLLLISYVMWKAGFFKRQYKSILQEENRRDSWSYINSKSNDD
T1 sequence (P26010 20-798): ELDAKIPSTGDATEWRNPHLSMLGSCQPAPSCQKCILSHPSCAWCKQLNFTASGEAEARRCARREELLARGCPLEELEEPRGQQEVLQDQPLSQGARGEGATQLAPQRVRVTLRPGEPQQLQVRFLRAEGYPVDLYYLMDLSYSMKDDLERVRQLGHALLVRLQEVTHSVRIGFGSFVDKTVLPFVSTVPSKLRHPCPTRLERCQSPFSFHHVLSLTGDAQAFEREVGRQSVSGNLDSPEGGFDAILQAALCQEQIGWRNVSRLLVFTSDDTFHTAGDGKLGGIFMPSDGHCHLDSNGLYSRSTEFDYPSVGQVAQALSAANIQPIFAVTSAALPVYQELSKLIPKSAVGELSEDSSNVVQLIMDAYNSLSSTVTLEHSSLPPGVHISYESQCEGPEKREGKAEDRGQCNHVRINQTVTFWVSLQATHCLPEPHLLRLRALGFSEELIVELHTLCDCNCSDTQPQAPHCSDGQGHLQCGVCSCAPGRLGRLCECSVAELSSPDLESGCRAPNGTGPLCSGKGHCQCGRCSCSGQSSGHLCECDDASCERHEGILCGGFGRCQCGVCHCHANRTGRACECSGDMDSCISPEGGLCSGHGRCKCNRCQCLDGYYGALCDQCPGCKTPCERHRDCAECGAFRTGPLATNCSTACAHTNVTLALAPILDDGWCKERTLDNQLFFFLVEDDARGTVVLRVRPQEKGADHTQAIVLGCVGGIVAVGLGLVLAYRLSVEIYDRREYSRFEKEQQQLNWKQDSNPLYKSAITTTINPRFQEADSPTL
Format: cell-based
Experimental: Biological Results. Adhesion Inhibition Assay Method
RPMI 8866 cells are used in this assay. They are available in a medium with 10% FBS, 200 mM L-Glutamine, and penicillin/streptomycin 10x.
1. Coat plates (costar 3590) with a human MAdCAM-1-Ig dilution prepared in carbonate buffer (25 ng of huMAdCAM/well in 50 μl carbonate buffer) overnight at 4° C. Carbonate buffer is NaHCO3 3.44 g, Na2CO3 1.72 g, water qs 200 ml; adjust pH to 9.5, filter thru 0.2 μm and store at 4° C.
2. Wash plates with the plate washer (BioTeck Instruments EL404) once, using settings for washing cell rinse, with the following parameters:
3. Block wells with blocking buffer (10% calf serum, PBS), 100 μl/well, 37° C., 3 h.
4. Wash plates with the plate washer once, using settings for washing cell rinse. Use plates within 10 min after washing.
5. Label the RPMI 8866 cells with 2′,7′-bis-(2-carboxyethyl)-5-6-carboxy-fluorescein acetoxymethyl ester (BCEF-AM) as follows:
spin down the cells at 1500 rpm, 10 min. Decant supernatant. Resuspend cells at 4×10^6 cells/ml sterile PBS in 50 ml polypropylene tube. Add 2 μl BCEF-AM per ml of resuspended cells. Mix well and wrap tube in aluminum foil (to exclude light). Place cells at 37° C. for 30 min to label. Spin labeled cells down (while covered in aluminum foil) at 1500 rpm, 10 min. Decant supernatant. Resuspend labeled cells in 25 ml assay buffer and centrifuge at 1500 rpm, 10 min. Resuspend labeled cells in assay buffer at 2.5×10^6 cells/ml.
(assay buffer: HBSS, penicillin/streptomycin 10×, MnCl2 0.5 mM, Hepes 25 mM, pH=7.2)
6. Prepare dilutions of positive control: LDP-02 (α4β7 integrin blocking antibody) in assay buffer at 250 μg/ml and compounds of the invention in DMSO for addition to assay plates.
7. To polypropylene plate, add, with Multimek:
2.2 μl/well of 100% DMSO or compound dilutions;
147.8 μl/well of assay buffer to all wells;
50 μl/well of BCEF-labeled RPMI 8866 cells (at 2.5×10^6 cells/ml assay buffer);
Mix well and add 180 μl of the mix to huMAdCAM-1-Ig coated plate.
8. Read plate in fluorescent plate reader (excite at 485 nm, read at 535 nm) and adjust the gain (total signal).
9. Wrap plates in aluminum foils and incubate at 25° C. for 30 min.
10. Wash plates with the plate washer using settings for washing cell rinse.
11. Read plate in fluorescent plate reader (excite at 485 nm, read at 535 nm).
The following Table 2 summarizes the results for some of the compounds and indicates the IC50 in μM.
In the case of `O=C1NC(=O)N(c2cccc3ccccc23)C(=O)/C1=C\c1c[nH]c2ccccc12` [Example 1, 5-(1H-Indol-3-ylmethylene)-naphthalen-1-yl-pyrimidine-2,4,6-trione], the IC50 is reported as 410 nM. `Cn1cc(/C=C2/C(=O)NC(=O)N(c3cccc4ccccc34)C2=O)c2ccccc21` [Example 2, 5-(1-Methyl-1H-indol-3-ylmethylene)-1-naphthalen-1-yl-pyrimidine-2,4,6-trione] was tested, and the IC50 was 940 nM. For `Cc1ccccc1N1C(=O)NC(=O)/C(=C/c2cn(C)c3ccccc23)C1=O` [Example 15, 5-(1-Methyl-1H-indol-3-ylmethylene)-1-o-tolyl-pyrimidine-2,4,6-trione], the IC50 was 2300 nM. In the case of `Cc1cccc(N2C(=O)NC(=O)/C(=C\C=C\c3ccccc3)C2=O)c1` [Example 16, 5-(3-Phenyl-allylidene)-1-m-tolyl-pyrimidine-2,4,6-trione], the IC50 is reported as 900 nM. With `Cc1cccc(N2C(=O)NC(=O)/C(=C/c3c[nH]c4ccccc34)C2=O)c1` [Example 17, 5-(1H-Indol-3-ylmethylene)-1-m-tolyl-pyrimidine-2,4,6-trione] the IC50 was 2930 nM. Work on `O=C1NC(=O)N(c2ccccc2Cl)C(=O)/C1=C\c1c[nH]c2ccccc12` [Example 18, 1-(2-Chloro-phenyl)-5-(1H-indol-3-ylmethylene)-pyrimidine-2,4,6-trione] yielded an IC50 of 2500 nM. In the case of `Cc1cccc(N2C(=O)NC(=O)/C(=C\c3ccc[nH]3)C2=O)c1` [Example 24, 5-(Pyrrol-2-ylmethylene)-1-m-tolyl-pyrimidine-2,4,6-trione], the IC50 is reported as 2950 nM. In the case of `Cc1ccccc1N1C(=O)NC(=O)/C(=C/C=C/c2ccccc2)C1=O` [Example 35, 5-(3-Phenyl-allylidene)-1-o-tolyl-pyrimidine-2,4,6-trione], the IC50 is reported as 2650 nM. `O=C1NC(=O)N(c2cccc(Cl)c2)C(=O)/C1=C/c1c[nH]c2ccccc12` [Example 37, 1-(3-Chloro-phenyl)-5-(1H-indol-3-ylmethylene)-pyrimidine-2,4,6-trione] was tested, and the IC50 was 2750 nM. In the case of `Cc1ccc(N2C(=O)NC(=O)/C(=C\C=C\c3ccccc3)C2=O)cc1` [Example 42, 5-(3-Phenyl-allylidene)-1-p-tolyl-pyrimidine-2,4,6-trione], the IC50 is reported as 2600 nM. Work on `O=C1NC(=O)N(c2ccccc2Cl)C(=O)/C1=C\C=C\c1ccccc1` [Example 43, 1-(2-Chloro-phenyl)-5-(3-phenyl-allylidene)-pyrimidine-2,4,6-trione] yielded an IC50 of 1900 nM. Work on `O=C1NC(=O)N(Cc2cccnc2)C(=O)/C1=C/c1c[nH]c2ccccc12` [Example 49, 5-(1H-indol-3-ylmethylene)-1-pyridin-3-ylmethyl-pyrimidine-2,4,6-trione] yielded an IC50 of 1300 nM. With `O=C1NC(=O)N(c2cccc3cccnc23)C(=O)/C1=C/C=C/c1ccccc1` [Example 51, 5-(3-Phenyl-allylidene)-1-quinolin-8-yl-pyrimidine-2,4,6-trione] the IC50 was 2700 nM.
